Key:
Format in all cases: biochemical
[1] = target: CDK2/Cyclin A complex (Homo sapiens, UniProt P24941); experiment: CDK2/Cyclin A assay; design: CDK2^c: concentration or dose not given beside the values; details: for CDK2^c: Table A combinatorial examples, footnote c not given
From the text: CDK2/Cyclin A Construct for Assay: CDK2 was purified using published methodology (Rosenblatt et al., J. Mol. Biol., 230, 1317-1319 (1993)) from insect cells that had been infected with a baculovirus expression vector. Cyclin A was purified from E. coli cells expressing full-length recombinant cyclin A, and a truncated cyclin A construct was generated by limited proteolysis and purified as described previously (Jeffrey et al., Nature, 376, 313-320 (Jul. 27, 1995)).
(§1) CDK2/Cyclin A and CDK4/Cyclin D Assays
(§2) Cyclin-dependent kinase activity was measured by quantifying the enzyme-catalyzed, time-dependent incorporation of radioactive phosphate from [^32P]ATP into a recombinant fragment of the retinoblastoma protein. Unless noted otherwise, assays were performed in 96-well plates in a total volume of 50 μL, in the presence of 10 mM HEPES (N-[2-hydroxyethyl]piperazine-N′-[2-ethanesulfonic acid]) (pH 7.4), 10 mM MgCl2, 25 μM adenosine triphosphate (ATP), 1 mg/mL ovalbumin, 5 μg/mL leupeptin, 1 mM dithiothreitol, 10 mM β-glycerophosphate, 0.1 mM sodium vanadate, 1 mM sodium fluoride, 2.5 mM ethylene glycol-bis(β-aminoethyl ether)-N,N,N′N′-tetraacetic acid (EGTA), 2% (v/v) dimethylsulfoxide, and 0.03-0.2 μCi [^32P]ATP. The substrate (0.3-0.5 μg) was purified recombinant retinoblastoma protein fragment (Rb) (residues 386-928 of the native retinoblastoma protein; 62.3 kDa, containing the majority of the phosphorylation sites found in the native 106-kDa protein, as well as a tag of six histidine residues for ease of purification). Reactions were initiated with CDK2 (150 nM CDK2/Cyclin A complex) or CDK4 (50 nM CDK4/Cyclin D3 complex), incubated at 30° C., and terminated after 20 minutes by the addition of ethylenediaminetetraacetic acid EDTA) to 250 mM. The phosphorylated substrate was then captured on a nitrocellulose membrane using a 96-well filtration manifold, and unincorporated radioactivity was removed by repeated washing with 0.85% phosphoric acid. Radioactivity was quantified by exposing the dried nitrocellulose membranes to a phosphorimager. Apparent Ki values were measured by assaying enzyme activity in the presence of different compound concentrations and subtracting the background radioactivity measured in the absence of enzyme. The kinetic parameters (kcat, Km for ATP) were measured for each enzyme under the usual assay conditions by determining the dependence of initial rates on ATP concentration. The data were fit to an equation for competitive inhibition using Kaleidagraph (Synergy Software), or were fit to an equation for competitive tight-binding inhibition using the software KineTic (BioKin, Ltd.). Measured Ki values for known inhibitors against CDK4 and CDK2 agreed with published IC50 values. The specific activity of CDK4 was the same whether complexed to full-length cyclin D3 or the truncated Cyclin D3 construct; both complexes also yielded very similar Ki values for selected inhibitors.

[2] = target: T1, FL-CHK1 (Homo sapiens, UniProt O14757); experiment: CHK1 assay; design: CHK1^b: unit not given here; details: for CHK1^b: Table A combinatorial examples, footnote b not given
T1 construct: C-terminally His-tagged full-length human CHK1 (FL-CHK1); 6xHis (C); made in house; host or cells: baculovirus/insect cells
T1 sequence (O14757 1-476): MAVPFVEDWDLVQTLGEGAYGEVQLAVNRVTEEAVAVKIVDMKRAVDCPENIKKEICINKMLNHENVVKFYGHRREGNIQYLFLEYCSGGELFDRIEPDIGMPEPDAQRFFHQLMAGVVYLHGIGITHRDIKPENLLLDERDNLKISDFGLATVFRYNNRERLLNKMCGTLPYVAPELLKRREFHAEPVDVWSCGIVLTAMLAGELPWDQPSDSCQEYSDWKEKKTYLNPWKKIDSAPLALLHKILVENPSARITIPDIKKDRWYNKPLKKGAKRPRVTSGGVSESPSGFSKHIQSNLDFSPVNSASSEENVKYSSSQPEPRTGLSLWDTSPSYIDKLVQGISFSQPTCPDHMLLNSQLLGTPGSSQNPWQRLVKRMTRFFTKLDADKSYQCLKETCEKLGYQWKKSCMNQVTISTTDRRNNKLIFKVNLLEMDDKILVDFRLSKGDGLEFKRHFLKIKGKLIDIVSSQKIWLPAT
From the text: CHK-1 Construct for Assay: C-terminally His-tagged full-length human CHK1 (FL-CHK1) was expressed using the baculovirus/insect cell system. It contains 6 histidine residues (6×His-tag) at the C-terminus of the 476 amino acid human CHK1. The protein was purified by conventional chromatographic techniques.
The production of ADP from ATP that accompanies phosphoryl transfer to the synthetic substrate peptide Syntide-2 ([…]) was coupled to oxidation of NADH using phosphoenolpyruvate (PEP) through the actions of pyruvate kinase (PK) and lactic dehydrogenase (LDH). The oxidation of NADH was monitored by following the decrease of absorbance at 340 nm (ε340=6.22 cm^−1 mM^−1) using a HP8452 spectrophotometer. Typical reaction solutions contained: […]; 0.15 mM NADH; 28 units of LDH/ml; 16 units of PK/ml; 3 mM DTT; 0.125 mM Syntide-2; 0.15 mM ATP; 25 mM MgCl2 in 50 mM TRIS, pH 7.5; and 400 mM NaCl. Assays were initiated with 10 nM of FL-CHK1. Ki values were determined by measuring initial enzyme activity in the presence of varying concentrations of test compounds. The data were analyzed using Enzyme Kinetic and Kaleidagraph software.

[3] = target: T2, CDK4/Cyclin D3 complex (Homo sapiens, UniProt P11802); experiment: CDK4/Cyclin D assay; details: Table 2; for inhibition at 100 µM: at 100 (printed 100 or 100 μM)
T2 construct: made in house; host or cells: insect cells co-infected with baculovirus vectors
T2 sequence (P11802 whole entry): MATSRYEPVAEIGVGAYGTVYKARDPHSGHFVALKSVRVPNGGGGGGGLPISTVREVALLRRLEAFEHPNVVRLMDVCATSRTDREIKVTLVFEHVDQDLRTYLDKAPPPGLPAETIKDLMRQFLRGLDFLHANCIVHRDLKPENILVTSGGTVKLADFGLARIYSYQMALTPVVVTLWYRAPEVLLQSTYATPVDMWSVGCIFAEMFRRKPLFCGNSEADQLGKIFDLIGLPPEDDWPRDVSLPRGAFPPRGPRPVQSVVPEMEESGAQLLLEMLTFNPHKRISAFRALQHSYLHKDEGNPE
T2 sequence (P30281 whole entry partner): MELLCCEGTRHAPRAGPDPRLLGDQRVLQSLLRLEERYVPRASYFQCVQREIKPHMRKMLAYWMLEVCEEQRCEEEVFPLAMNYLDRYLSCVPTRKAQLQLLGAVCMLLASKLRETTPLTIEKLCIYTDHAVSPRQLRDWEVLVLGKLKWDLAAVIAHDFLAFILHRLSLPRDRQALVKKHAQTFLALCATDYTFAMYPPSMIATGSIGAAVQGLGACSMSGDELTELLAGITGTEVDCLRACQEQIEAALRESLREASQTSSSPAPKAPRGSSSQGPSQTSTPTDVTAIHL
Protocol: CDK4/Cyclin D Construct for Assay: A complex of human CDK4 and cyclin D3, or a complex of cyclin DI and a fusion protein of human CDK4 and glutathione-S-transferase (GST-CDK4), was purified using traditional biochemical chromatographic techniques from insect cells that had been co-infected with the corresponding baculovirus expression vectors.
as §1, §2

[4] = target: T3, phosphorylated VEGF-R2Δ50 (FLVK-P) (Homo sapiens, UniProt P35968, DEL940-989/E990V); experiment: VEGF-R2 coupled spectrophotometric (FLVK-P) assay; details: Table 3; at 1 μM
T3 construct: VEGF-R2Δ50 contains residues 806-939 and 990-1171; made in house; host or cells: baculovirus/insect cells
T3 sequence (P35968 with tags, fused parts or gaps DEL940-989/E990V limits assumed): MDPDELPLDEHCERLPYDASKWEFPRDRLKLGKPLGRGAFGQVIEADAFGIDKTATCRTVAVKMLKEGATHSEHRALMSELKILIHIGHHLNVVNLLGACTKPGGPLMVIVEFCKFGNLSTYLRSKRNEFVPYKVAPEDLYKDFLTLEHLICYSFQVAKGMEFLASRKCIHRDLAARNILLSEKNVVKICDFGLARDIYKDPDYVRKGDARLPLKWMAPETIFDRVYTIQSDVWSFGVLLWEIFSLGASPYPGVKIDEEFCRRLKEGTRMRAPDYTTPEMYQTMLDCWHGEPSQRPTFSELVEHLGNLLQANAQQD
From the text: VEGF-R2 Construct for Assay: This construct determines the ability of a test compound to inhibit tyrosine kinase activity. A construct (VEGF-R2Δ50) of the cytosolic domain of human vascular endothelial growth factor receptor 2 (VEGF-R2) lacking the 50 central residues of the 68 residues of the kinase insert domain was expressed in a baculovirus/insect cell system. Of the 1356 residues of full-length VEGF-R2, VEGF-R2Δ50 contains residues 806-939 and 990-1171, and also one point mutation (E990V) within the kinase insert domain relative to wild-type VEGF-R2. Autophosphorylation of the purified construct was performed by incubation of the enzyme at a concentration of 4 μM in the presence of 3 mM ATP and 40 mM MgCl2 in 100 mM Hepes, pH 7.5, containing 5% glycerol and 5 mM DTT, at 4° C. for 2 h. […] See Parast et al., Biochemistry, 37, 16788-16801 (1998).
Coupled Spectrophotometric (FLVK-P) Assay
The production of ADP from ATP that accompanies phosphoryl transfer was coupled to oxidation of NADH using phosphoenolpyruvate (PEP) and a system having pyruvate kinase (PK) and lactic dehydrogenase (LDH). The oxidation of NADH was monitored by following the decrease of absorbance at 340 nm (e340=6.22 cm^−1 mM^−1) using a Beckman DU 650 spectrophotometer. Assay conditions for phosphorylated VEGF-R2Δ50 (indicated as FLVK-P in the tables below) were the following: 1 mM PEP; 250 μM NADH; 50 units of LDH/mL; 20 units of PK/mL; 5 mM DTT; 5.1 mM poly(E4Y1); 1 mM ATP; and 25 mM MgCl2 in 200 mM Hepes, pH 7.5. Assay conditions for unphosphorylated VEGF-R2Δ50 (indicated as FLVK in the tables) were the following: 1 mM PEP; 250 μM NADH; 50 units of LDH/mL; 20 units of PK/mL; 5 mM DTT; 20 mM poly(E4Y1); 3 mM ATP; and 60 mM MgCl2 and 2 mM MnCl2 in 200 mM Hepes, pH 7.5. Assays were initiated with 5 to 40 nM of enzyme. Ki values were determined by measuring enzyme activity in the presence of varying concentrations of test compounds. The data were analyzed using Enzyme Kinetic and Kaleidagraph software.

| CDK2^c [1] | CHK1^b [2] | Structure (SMILES) | also measured |
| --- | --- | --- | --- |
| 7.3 | 46.3 | COc1cc(Nc2nc(N)c(-c3nc(-c4cc(C)sc4C)cs3)s2)cc(OC)c1OC |  |
| 4.2 | 22.4 | COc1cc(Nc2nc(N)c(-c3nc(-c4ccc5c(c4)C(C)(C)CCC5(C)C)cs3)s2)cc2c1OCCO2 |  |
| 13.9 | 8.5 | COc1cc(Nc2nc(N)c(-c3nc(-c4ccc(C(F)(F)F)cc4)cs3)s2)cc(OC)c1OC |  |
| −7.8 | 31.9 | COc1cc(Nc2nc(N)c(-c3nc(-c4ccc5c(c4)CCC(=O)N5)cs3)s2)cc2c1OCCO2 |  |
| 4.6 | 0.5 | COc1cc(Nc2nc(N)c(-c3nc(-c4ccccc4OC(=O)c4ccccc4)cs3)s2)cc(OC)c1OC |  |
| 13.8 | 10.4 | CCc1cc2c(cc1-c1csc(-c3sc(Nc4cc(OC)c5c(c4)OCCO5)nc3N)n1)C(C)(C)CCC2(C)C |  |
| −2.7 | 21.6 | COc1ccc2nc(-c3ccccc3)cc(-c3csc(-c4sc(Nc5cc(OC)c(OC)c(OC)c5)nc4N)n3)c2c1 |  |
| 23.1 | 4.7 | COc1cc(Nc2nc(N)c(-c3nc(-c4sc5ccccc5c4C)cs3)s2)cc2c1OCCO2 |  |
| 5.3 | 25.3 | COc1cc(Nc2nc(N)c(-c3nc(-c4cc(C(C)(C)C)c(O)c(C(C)(C)C)c4)cs3)s2)cc(OC)c1OC |  |
|  |  | CCOC(=O)c1ccc(-c2csc(-c3sc(Nc4cc(OC)c(OC)c(OC)c4)nc3N)n2)cc1 [A(11), 4-[4′-Amino-2′-(3,4,5-trimethoxy-phenylamino)-[2,5′]bithiazolyl-4-yl]-benzoic acid ethyl ester] | inhibition at 100 µM [3]: 33% |
|  |  | COc1cc(Nc2nc(N)c(-c3cccc(Br)n3)s2)cc(OC)c1OC [G(6), 5-(6-Bromo-pyridin-2-yl)-2-N-(3,4,5-trimethoxy-phenyl)-thiazole-2,4-diamine] | Ki [3]: 100 µM |
|  |  | COc1cc(Nc2nc(N)c(C3=N[C@H](Cc4ccccc4)CO3)s2)cc(OC)c1OC [I(2), R-5-(4-Benzyl-4,5-dihydro-oxazol-2-yl)-N^2-(3,4,5-trimethoxyl-phenyl)-thiazole-2,4-diamine] | inhibition at 100 µM [3]: < 0% |
|  |  | COc1cc(Nc2nc(N)c(C3=NC(C(C)OCc4ccccc4)CO3)s2)cc(OC)c1OC [I(4), 5-{(4R)-[(1R)-Benzyloxy-ethyl]-4,5-dihydro-oxazol-2-yl}-N^2-(3,4,5-trimethoxyl-phenyl)-thiazole-2,4-diamine] | inhibition at 100 µM [3]: < 0% |
|  |  | Nc1nc(Nc2ccc(S(N)(=O)=O)cc2)sc1-c1nc(C(=O)O)cs1 [N(1)] | Ki ([1]; Table 3): 2.7 µM; inhibition at 1 µM [4]: 24%; inhibition at 25 µM ([2]; Table 3, at 25 μM): < 0% |
| −10.3 | 47.7 | COc1cc(Nc2nc(N)c(-c3nc(-c4ccc(O)c(O)c4)cs3)s2)cc(OC)c1OC [drawing 325] |  |
| −13 | 15.3 | COc1ccc(-c2csc(-c3sc(Nc4cc(OC)c(OC)c(OC)c4)nc3N)n2)cc1 [drawing 336] |  |
| 3 | 48.3 | COc1cc(Nc2nc(N)c(-c3nc(-c4ccc(O)cc4)cs3)s2)cc(OC)c1OC [drawing 352] |  |
| −0.2 | 21.1 | COc1cc(Nc2nc(N)c(-c3nc(-c4ccccc4)cs3)s2)cc(OC)c1OC [drawing 358] |  |
| 7.3 | 48.7 | COc1cc(Nc2nc(N)c(-c3nc(-c4sc5ccc(Cl)cc5c4C)cs3)s2)cc2c1OCCO2 [drawing 361] |  |
| 1.7 | 29.4 | COc1ccc(-c2csc(-c3sc(Nc4cc(OC)c(OC)c(OC)c4)nc3N)n2)cc1 [drawing 362] |  |
| 12 | 38.1 | COc1cc(Nc2nc(N)c(-c3nc(-c4sc5ccc(Cl)cc5c4C)cs3)s2)cc2c1OCCO2 [drawing 363] |  |
| −1 | 14.1 | COc1cc(Nc2nc(N)c(-c3nc(-c4ccccc4)cs3)s2)cc(OC)c1OC [drawing 372] |  |
| −12.1 | 32.5 | COc1cc(Nc2nc(N)c(-c3nc(-c4ccc(F)cc4F)cs3)s2)cc(OC)c1OC [drawing 382] |  |
